Data published in patent publication US8580965B2, “Substituted sulfonamide compounds” (Gruenenthal GmbH, priority 2006, dated 2013).
Where a name gives a salt, the structure may show the parent alone.

Experiments:
[1] = biological target: T1, human B1R receptor (bradykinin 1 receptor) (Homo sapiens, UniProt P46663); assay: FLIPR Ca2+ assay (Fluo-4) on CHO K1 cells stably transfected with the human B1R gene; % activation and % inhibition at 10 μM; assay type: cell-based; details: CHO K1 hB1R cells, Ca2+ inflow after 0.5 nM Lys-Des-Arg9-bradykinin; for inhibition at 10 µM: CHO-K1, test substance 10 μM, read-out: B1R antagonism, human [10 μM] % inhibition
T1 construct: host or cells: CHO K1 cells (hB1R cells)
T1 sequence (P46663 1-353): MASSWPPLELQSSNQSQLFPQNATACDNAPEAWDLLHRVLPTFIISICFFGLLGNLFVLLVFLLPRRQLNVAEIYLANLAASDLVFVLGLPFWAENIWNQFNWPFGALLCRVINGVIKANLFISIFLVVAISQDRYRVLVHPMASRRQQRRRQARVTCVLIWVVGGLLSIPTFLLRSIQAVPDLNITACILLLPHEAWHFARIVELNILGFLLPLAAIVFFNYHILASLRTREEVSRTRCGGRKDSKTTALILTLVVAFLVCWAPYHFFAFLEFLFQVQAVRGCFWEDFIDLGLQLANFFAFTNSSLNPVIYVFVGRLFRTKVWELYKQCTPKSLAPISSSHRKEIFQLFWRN
Summary of the method: (§1)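 Fluo-4 Ca2+ flux on FLIPR in stable hB1R or rB1R CHO K1 lines, two additions. Agonism: 10 µM compound versus 0.5 nM Lys-Des-Arg9-BK (human) or 100 nM Des-Arg9-BK (rat); antagonism: same agonists applied 10 min later, suppression expressed against maximum achievable inhibition.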

[2] = biological target: T2, B1R receptor of the rat (bradykinin 1 receptor) (Rattus norvegicus, UniProt P97583); assay: FLIPR Ca2+ assay (Fluo-4) on CHO K1 cells stably transfected with the B1R gene of the rat; % activation and % inhibition at 10 μM; assay type: cell-based; details: CHO K1 rB1R cells, Ca2+ inflow after 100 nM Des-Arg9-bradykinin; for inhibition at 10 µM: CHO-K1, test substance 10 μM, read-out: B1R antagonism, rat [10 μM] % inhibition
T2 construct: host or cells: CHO K1 cells (rB1R cells)
T2 sequence (P97583 1-337): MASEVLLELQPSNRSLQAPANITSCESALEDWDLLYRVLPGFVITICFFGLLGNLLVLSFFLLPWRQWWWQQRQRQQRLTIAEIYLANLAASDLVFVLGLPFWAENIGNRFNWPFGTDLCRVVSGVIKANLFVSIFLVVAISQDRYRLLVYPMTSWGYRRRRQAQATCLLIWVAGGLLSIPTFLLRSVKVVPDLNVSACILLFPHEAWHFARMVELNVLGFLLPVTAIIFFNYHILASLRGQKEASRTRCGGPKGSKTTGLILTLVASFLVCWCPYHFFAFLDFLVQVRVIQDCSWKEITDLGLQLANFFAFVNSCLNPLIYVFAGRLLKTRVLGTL
Summary of the method: as §1

[3] = system: formalin-induced nociceptive reaction (phase 2); assay: Formalin test mouse (phase 2, chronic pain component); assay type: in vivo; details: phase 2 (21 to 24 min after formalin), i.v., 10 mg/kg, 5 min before formalin, change in percent compared with vehicle control
Description: The formalin test (Dubuisson, D. and Dennis, S. G., 1977, Pain, 4, 161-174) represents a model for both acute and chronic pain. By means of a single formalin injection into the dorsal side of a rear paw, a biphasic nociceptive reaction is induced in freely mobile test animals; the reaction is detected by observing three behavior patterns which are clearly distinguishable from one another. The reaction is two-phase: phase 1=immediate reaction (duration up to 10 min., shaking of the paw, licking), phase 2=late reaction (after a rest phase; likewise shaking of the paw, licking; duration up to 60 min.). […] In the studies described here, the chronic pain component (phase 2) has been evaluated.
Formalin in a volume of 20 μl and a concentration of 1% is administered subcutaneously into the dorsal side of the right rear paw of each animal. The specific changes in behavior, such as lifting, shaking or licking of the paw (score 3, Dubuisson & Dennis, 1977), are observed and recorded in the observation period of 21 to 24 min following the formalin injection.
The behavior of the animals after administration of the substance (n=10 per dose of substance) was compared with a control group which received vehicle (n=10). Based on the quantification of the pain behavior, the activity of the test substance in the formalin test was determined as the change, in percent, compared with the control. […]

[4] = test substance 10 μM, hydrochloride

SMILES	inhibition at 10 µM [1]	inhibition at 10 µM [2]	B1R antagonism, human [10 μM] % inhibition [1, 4]	B1R antagonism, rat [10 μM] % inhibition [2, 4]	Substance action: antinociception [3]
COc1cc(C)c(S(=O)(=O)N2CCCCC2COCC(=O)N2CCC(O)(c3cccnc3)CC2)c(C)c1 (stereo not shown) [Example 87, 1-(4′-hydroxy-3′,4′,5′,6′-tetrahydro-2′H-[3,4′]bipyridinyl-1′-yl)-2-[1-(4-methoxy-2,6-dimethyl-phenylsulfonyl)-piperidin-2-ylmethoxy]-ethanone; hydrochloride]	–	–	101.8%	101.93%	23% antinociception
COc1cc(C)c(S(=O)(=O)N(CCOCC(=O)N2CCC(O)(c3cccs3)CC2)CC2CC2)c(C)c1C [Example 268, N-(cyclopropylmethyl)-N-(2-(2-(4-hydroxy-4-(thiophen-2-yl)piperidin-1-yl)-2-oxoethoxy)ethyl)-4-methoxy-2,3,6-trimethylphenylsulfonamide]	99.1%	98.8%	–	–	–
COc1cc(C)c(S(=O)(=O)N(CCOCC(=O)N2CCC(O)(c3cccs3)CC2)CC(C)C)c(C)c1C [Example 269, N-(2-(2-(4-hydroxy-4-(thiophen-2-yl)piperidin-1-yl)-2-oxoethoxy)ethyl)-N-isobutyl-4-methoxy-2,3,6-trimethylphenylsulfonamide]	98.4%	99.1%	–	–	–
O=C(COCC1CCCCN1S(=O)(=O)c1c(Cl)cccc1Cl)N1CCC(O)(c2cccs2)CC1 (stereo not shown) [Example 270, 2-((1-(2,6-dichlorophenylsulfonyl)piperidin-2-yl)methoxy)-1-(4-hydroxy-4-(thiophen-2-yl)piperidin-1-yl)ethanone]	93.9%	99.7%	–	–	–
O=C(COCC1CCCCN1S(=O)(=O)c1csc2ccccc12)N1CCC(O)(c2cccnc2)CC1 (stereo not shown) [Example 273, 2-((1-(benzo[b]thiophen-3-ylsulfonyl)piperidin-2-yl)methoxy)-1-(4-hydroxy-4-(pyridin-3-yl)piperidin-1-yl)ethanone]	103%	101%	–	–	–
O=C(COCC1CCCCN1S(=O)(=O)c1csc2ccccc12)N1CCC(O)(Cc2ccccc2)CC1 (stereo not shown) [Example 274, 2-((1-(benzo[b]thiophen-3-ylsulfonyl)piperidin-2-yl)methoxy)-1-(4-benzyl-4-hydroxypiperidin-1-yl)ethanone]	96.4%	76%	–	–	–
COc1cc(C)c(S(=O)(=O)N(C)CCOCCC(=O)N2CCC(O)(c3ccc(Cl)cc3)CC2)c(C)c1 [Example 275, N-(2-(3-(4-(4-chlorophenyl)-4-hydroxypiperidin-1-yl)-3-oxopropoxy)ethyl)-4-methoxy-N,2,6-trimethylphenylsulfonamide]	100%	92.4%	–	–	–
COc1cc(C)c(S(=O)(=O)N(C)CCOCC(=O)N2CCC(O)(Cc3cccnc3)CC2)c(C)c1 [Example 279, N-(2-(2-(4-hydroxy-4-(pyridin-3-ylmethyl)piperidin-1-yl)-2-oxoethoxy)ethyl)-4-methoxy-N,2,6-trimethylphenylsulfonamide hydrochloride]	103%	105%	–	–	–
COc1cc(C)c(S(=O)(=O)N(C)CCOCC(=O)N2CCC(O)(Cc3ccncc3)CC2)c(C)c1 [Example 280, N-(2-(2-(4-hydroxy-4-(pyridin-4-ylmethyl)piperidin-1-yl)-2-oxoethoxy)ethyl)-4-methoxy-N,2,6-trimethylphenylsulfonamide]	100%	100%	–	–	–

The next lines start with results.

inhibition at 10 µM [1]	inhibition at 10 µM [2]	SMILES	B1R antagonism, human [10 μM] % inhibition [1, 4]	B1R antagonism, rat [10 μM] % inhibition [2, 4]	Substance action: antinociception [3]
90.6%	97.8%	COc1cc(C)c(S(=O)(=O)N2CCC(COCC(=O)N3CCC(O)(c4cccs4)CC3)C2)c(C)c1 (stereo not shown) [Example 267, 1-(4-hydroxy-4-(thiophen-2-yl)piperidin-1-yl)-2-((1-(4-methoxy-2,6-dimethylphenylsulfonyl)pyrrolidin-3-yl)methoxy)ethanone]	–	–	–
41.9%	78.3%	O=C(COCC1CCCCN1S(=O)(=O)c1cc(Cl)sc1Cl)N1CCC(O)(c2ccccc2)CC1 (stereo not shown) [Example 271, 2-((1-(2,5-dichlorothiophen-3-ylsulfonyl)piperidin-2-yl)methoxy)-1-(4-hydroxy-4-phenylpiperidin-1-yl)ethanone]	–	–	–
54.1%	24.1%	O=C(COCC1CCN(S(=O)(=O)c2c(Cl)cc(Cl)cc2Cl)C1)N1CCC(O)(c2ccc(Cl)cc2)CC1 (stereo not shown) [Example 272, 1-(4-(4-chlorophenyl)-4-hydroxypiperidin-1-yl)-2-((1-(2,4,6-trichlorophenylsulfonyl)pyrrolidin-3-yl)methoxy)ethanone]	–	–	–
70.7%	88.3%	COc1cc(C)c(S(=O)(=O)N(C)CCOCCC(=O)N2CCC(O)(c3ccccc3)CC2)c(C)c1 [Example 276, N-(2-(3-(4-hydroxy-4-phenylpiperidin-1-yl)-3-oxopropoxy)ethyl)-4-methoxy-N,2,6-trimethylphenylsulfonamide]	–	–	–
86.8%	88.2%	COc1cc(C)c(S(=O)(=O)N(C)CCOCCC(=O)N2CCC(O)(Cc3ccccc3)CC2)c(C)c1 [Example 277, N-(2-(3-(4-benzyl-4-hydroxypiperidin-1-yl)-3-oxopropoxy)ethyl)-4-methoxy-N,2,6-trimethylphenylsulfonamide]	–	–	–
96.4%	99.9%	COc1cc(C)c(S(=O)(=O)N(C)CCOCCC(=O)N2CCC(O)(c3ccc(Cl)c(C(F)(F)F)c3)CC2)c(C)c1 [Example 278, N-(2-(3-(4-(4-chloro-3-(trifluoromethyl)phenyl)-4-hydroxypiperidin-1-yl)-3-oxopropoxy)ethyl)-4-methoxy-N,2,6-trimethylphenylsulfonamide]	–	–	–
